Results published in patent US20240246960A1 (adMare Therapeutics Society, priority 2021, published 2024).

Tests used:
DNA-PK = target: T1, DNA-PK (Homo sapiens, UniProt P78527); experiment: DNA-PK Assay for Biochemical Enzymatic Inhibition (ADP Glo Kinase assay)
T1 construct: purchased Invitrogen PR9107A
Procedure: A biochemical assay was performed to identify IC50 values against DNA-PK activity in a two-step reaction with a kinase reaction followed by ADP Glo™ Kinase assay Kit (Promega V9102).
Three-fold serial dilutions of compounds in DMSO were prepared in kinase assay buffer (50 mM HEPES pH 7.5, 20 mM MgCl2, 100 mM KCl, 50 μM DTT, 10 μg/ml calf thymus DNA, 0.01% Tween 20). Kinase assay buffer was used to prepare compound treatments to 0.02% DMSO (dimethyl sulphoxide) content. DMSO controls were prepared to produce a maximum and minimum luminescence signal for normalization. Substrate (Anaspec, AS-60210-5) and ATP (Promega V9102) and ATP mix was prepared by dilution in kinase assay buffer for 434.4 μM and 64.4 μM final assay concentrations, respectively. Compounds and control were added to 25 ng DNA-PK enzyme (Invitrogen, PR9107A) diluted in kinase buffer in assay plate (Corning 267459) and incubated for 15 minutes at room temperature prior to addition of substrate and ATP mix.
Throughout the assay, each time a reagent was added to the microplate, it was centrifuged for 1 minute at 1300 rcf. All reagents were added, and incubations carried out at room temperature. The reaction was then incubated for 60 minutes. ADP-ATP standards at 0, 4, 10, 40, 80, and 100% ADP (prepared as specified in the ADP Glo™ Kinase assay kit) were also added to the microplate at a volume equal to the total kinase reaction. The ADP Glo™ Kinase Assay kit was then used to quantify DNA-PK activity: following the 60-minute incubation, a 1:1 volume of ADP Glo reagent was added to all wells, then following a further 45-minute incubation, a 1:1 volume of Kinase Detection Reagent was added to all wells. After this two-step assay, plates were incubated in a Synergy-Neo2 plate reader for 30 minutes with gentle shaking, followed by endpoint luminescent read Luminescence data was normalized by subtracting the background signal and expressing all background-adjusted values as a percentage of the average maximum signal. The data was then expressed as percent inhibition by subtracting from 100% (i.e. maximum luminescent signal will be 0% inhibition) and the resulting data plotted against ten concentration points on a logarithmic scale, using GraphPad Prism. Non-linear regression analysis was performed on each concentration response curve and the log [inhibitor] vs response—variable slope (four parameters) equation was selected to generate IC50 values.

[1] = target: T2, DNA-PK phosphorylation at Serine 2056 (Homo sapiens, UniProt P78527); experiment: Cellular Assay for Inhibition of DNA-PK Phosphorylation at Serine 2056 (FaDu cells, neocarzinostatin, sandwich ELISA); type: cell-based
T2 construct: host or cells: FaDu
Procedure: FaDu cells were purchased from ATCC and maintained in MEM alpha medium (Life Technologies, cat. no. 12561) supplemented with 10% fetal bovine serum, and 1% GlutaMAX at 37° C. supplemented with 5% CO2. 50,000 cells were seeded to each well of a 96-well cell culture plate in 50 μL of culture medium and incubated for 16-24 hours. Three-fold serially diluted compounds were prepared in DMSO. Culture media was used to prepare compound treatments to 0.3% DMSO (dimethyl sulphoxide) content. Compound treatments were added to the cells for 1 hour prior incubation, followed by the addition of neocarzinostatin in fresh culture medium to 1 μg/mL final concentration for an additional 2 hours incubation to induce DNA DSBs (double-strand breaks). DMSO controls were incubated with fresh culture medium alone for the additional two hours incubation. The cells were then lysed and frozen at −20° C. Cell lysates were thawed on wet ice and protein concentrations quantified by BCA Protein Assay (Thermo # 23225). Lysis buffer was used to normalize lysates by protein content and all lysates were then investigated by sandwich ELISA by means of DNA-PK-specific antibodies (Abcam ab44815: total DNA-PK; ab124918: phosphoserine-2056 DNA-PK) in sandwich ELISA format on the MSD S600MM platform (MesoScale Discovery). % inhibition was calculated for all data points: =1−(DATA_PT−AVERAGE(DMSO controls))/(AVERAGE(NCS controls)−AVERAGE(DMSO controls)). Logarithm of the molar concentration of compound was plotted against percent inhibition to calculate IC50 values, with curve fit settings for data fit to log(inhibitor) vs. normalized response—Variable slope using curve fit software (GraphPad Prism).

| IC50 (DNA-PK; Table 1) | IC50 ([1]; Table 3) | Compound | further results |
| --- | --- | --- | --- |
| 10 to 150 nM | – | Cn1cc([C@H]2CC[C@H](Oc3nc(N4CCOCC4)cc4ncc(Br)cc34)CC2)cn1 [Compound 3b, 4-(3-bromo-5-(((1r,4r)-4-(1-methyl-1H-pyrazol-4-yl)cyclohexyl)oxy)-1,6-naphthyridin-7-yl)morpholine] | – |
| 10 to 150 nM | – | Cn1cc([C@H]2CC[C@@H](Oc3nc(N4CCOCC4)cc4ncc(O)cc34)CC2)cn1 [Compound 4b, 5-(((1r,4r)-4-(1-methyl-1H-pyrazol-4-yl)cyclohexyl)oxy)-7-morpholino-1,6-naphthyridin-3-ol] | – |
| 10 to 150 nM | – | FC(F)(F)c1ccn([C@H]2CC[C@@H](Oc3nc(N4CCOCC4)cc4ncccc34)CC2)n1 [Compound 17c, 4-(5-(((1s,4s)-4-(3-(trifluoromethyl)-1H-pyrazol-1-yl)cyclohexyl)oxy)-1,6-naphthyridin-7-yl)morpholine] | – |
| 1 to 10 nM | – | FC(F)(F)c1ccnn1[C@H]1CC[C@@H](Oc2nc(N3CCOCC3)cc3ncccc23)CC1 [Compound 17d, 4-(5-(((1s,4s)-4-(5-(trifluoromethyl)-1H-pyrazol-1-yl)cyclohexyl)oxy)-1,6-naphthyridin-7-yl)morpholine] | IC50 ([1]; Table 1): 100 to 1000 nM |
| 10 to 150 nM | – | COc1cnc(N[C@H]2CC[C@@H](Oc3nc(N4CCOCC4)cc4ncc(Br)cc34)CC2)nc1 [Compound 18c, N-((1s,4s)-4-((3-Bromo-7-morpholino-1,6-naphthyridin-5-yl)oxy)cyclohexyl)-5-methoxypyrimidin-2-amine] | – |
| < 0.5 nM | – | Cc1nccc(N[C@H]2CC[C@@H](Oc3nc(N4CCOCC4)cc4ncccc34)CC2)n1 [Compound 37, 2-methyl-N-((1s,4s)-4-((7-morpholino-1,6-naphthyridin-5-yl)oxy)cyclohexyl)pyrimidin-4-amine] | IC50 ([1]; Table 1): 100 to 1000 nM |
| 10 to 150 nM | – | CCOC(=O)N[C@H]1CC[C@@H](Oc2nc(N3CCOCC3)cc3ncccc23)CC1 [Compound 104, Ethyl ((1s,4s)-4-((7-morpholino-1,6-naphthyridin-5-yl)oxy)cyclohexyl)carbamate] | – |
| 10 to 150 nM | – | O=C(N[C@H]1CC[C@@H](Oc2nc(N3CCOCC3)cc3ncccc23)CC1)c1cncnc1C(F)(F)F [Compound 130, N-((1s,4s)-4-((7-morpholino-1,6-naphthyridin-5-yl)oxy)cyclohexyl)-4-(trifluoromethyl)pyrimidine-5-carboxamide] | – |
| 10 to 150 nM | – | O=S(=O)(N[C@H]1CC[C@@H](Oc2nc(N3CCOCC3)cc3ncccc23)CC1)c1ccccc1 [Compound 147, N-((1s,4s)-4-((7-Morpholino-1,6-naphthyridin-5-yl)oxy)cyclohexyl)benzenesulfonamide] | – |
| 10 to 150 nM | – | O=S(=O)(N[C@H]1CC[C@@H](Oc2nc(N3CCOCC3)cc3ncccc23)CC1)c1ccc(F)cc1 [Compound 148, 4-Fluoro-N-((1s,4s)-4-((7-morpholino-1,6-naphthyridin-5-yl)oxy)cyclohexyl)benzenesulfonamide] | – |
| 10 to 150 nM | – | COc1ccc(S(=O)(=O)N[C@H]2CC[C@@H](Oc3nc(N4CCOCC4)cc4ncccc34)CC2)cc1 [Compound 149, 4-Methoxy-N-((1s,4s)-4-((7-morpholino-1,6-naphthyridin-5-yl)oxy)cyclohexyl)benzenesulfonamide] | – |
| 10 to 150 nM | – | O=C([C@H]1CC[C@@H](Oc2nc(N3CCOCC3)cc3ncccc23)CC1)N1CCOCC1 [Compound 154a, morpholino((1S,4S)-4-((7-morpholino-1,6-naphthyridin-5-yl)oxy)cyclohexyl)methanone] | – |
| 10 to 150 nM | – | CN1CCN(C(=O)[C@H]2CC[C@@H](Oc3nc(N4CCOCC4)cc4ncccc34)CC2)CC1 [Compound 154d, (4-methylpiperazin-1-yl)((1S,4S)-4-((7-morpholino-1,6-naphthyridin-5-yl)oxy)cyclohexyl)methanone] | – |
| 10 to 150 nM | – | c1ccc(CN[C@H]2CC[C@@H](Oc3nc(N4CCOCC4)cc4ncccc34)CC2)cc1 [Compound 155, (1s,4s)-N-benzyl-4-((7-morpholino-1,6-naphthyridin-5-yl)oxy)cyclohexan-1-amine] | IC50 ([1]; Table 1): 10000 to 30000 nM |
| 10 to 150 nM | – | CC(=O)Nc1cnc2cc(N3CCOCC3)nc(O[C@H]3CC[C@@H](n4ccnc4)CC3)c2c1 [Compound 162, N-(5-(((1s,4s)-4-(1H-imidazol-1-yl)cyclohexyl)oxy)-7-morpholino-1,6-naphthyridin-3-yl)acetamide] | – |
| 10 to 150 nM | – | CN(c1cnc2cc(N3CCOCC3)nc(O[C@H]3CC[C@@H](N(C)c4ncccn4)CC3)c2c1)S(C)(=O)=O [Compound 199, N-methyl-N-(5-(((1s,4s)-4-(methyl(pyrimidin-2-yl)amino)cyclohexyl)oxy)-7-morpholino-1,6-naphthyridin-3-yl)methanesulfonamide] | – |
| – | – | CS(=O)(=O)Nc1cnc2cc(N3CCOCC3)nc(O[C@H]3CC[C@@H](Nc4ncc(C(N)=O)cn4)CC3)c2c1 [LFA028, 2-[[4-[[3-(Methanesulfonamido)-7-morpholino-1,6-naphthyridin-5-yl]oxy]cyclohexyl]amino]pyrimidine-5-carboxamide] | IC50 (DNA-PK; Table 2): 0.5 to 1 nM; IC50 ([1]; Table 2): 1000 to 10000 nM |
| – | 100 to 1000 nM | CN(c1ncccn1)[C@H]1CC[C@@H](Oc2nc(N3CCOCC3)cc3ncc(O)cc23)CC1 [LFA1058, 5-[4-[methyl(pyrimidin-2-yl)amino]cyclohexoxy]-7-morpholino-1,6-naphthyridin-3-ol] | – |
| – | 100 to 1000 nM | Cc1cc(C#N)nc(N[C@H]2CC[C@@H](Oc3nc(N4CCOCC4)cc4ncc(O)cc34)CC2)n1 [LFA1059, 2-[[4-[(3-hydroxy-7-morpholino-1,6-naphthyridin-5-yl)oxy]cyclohexyl]amino]-6-methyl-pyrimidine-4-carbonitrile] | – |
| – | < 100 nM | CN(C)Cc1cnc(N[C@H]2CC[C@@H](Oc3nc(N4CCOCC4)cc4ncc(O)cc34)CC2)nc1 [LFA1060, 5-[4-[[5-[(dimethylamino)methyl]pyrimidin-2-yl]amino]cyclohexoxy]-7-morpholino-1,6-naphthyridin-3-ol] | – |
| – | < 100 nM | CS(=O)(=O)Nc1cnc2cc(N3CCOCC3)nc(O[C@H]3CC[C@@H](n4cc(F)cn4)CC3)c2c1 [LFA1061, N-[5-[4-(4-fluoropyrazol-1-yl)cyclohexoxy]-7-morpholino-1,6-naphthyridin-3-yl]methanesulfonamide] | – |
| – | 100 to 1000 nM | Cn1cc([C@H]2CC[C@@H](Oc3nc(N4CCOCC4)cc4ncc(NS(C)(=O)=O)cc34)CC2)cn1 [LFA1062, N-[5-[4-(1-methylpyrazol-4-yl)cyclohexoxy]-7-morpholino-1,6-naphthyridin-3-yl]methanesulfonamide] | – |
| – | 10000 to 30000 nM | Cn1cc([C@H]2CC[C@H](Oc3nc(N4CCOCC4)cc4ncc(NS(C)(=O)=O)cc34)CC2)cn1 [LFA1063, N-[5-[4-(1-methylpyrazol-4-yl)cyclohexoxy]-7-morpholino-1,6-naphthyridin-3-yl]methanesulfonamide] | – |
| – | 100 to 1000 nM | CS(=O)(=O)Nc1cnc2cc(N3CCOCC3)nc(O[C@H]3CC[C@@H](c4cnccn4)CC3)c2c1 [LFA1064, N-[7-morpholino-5-(4-pyrazin-2-ylcyclohexoxy)-1,6-naphthyridin-3-yl]methanesulfonamide] | – |
| – | < 100 nM | Oc1cnc2cc(N3CCOCC3)nc(O[C@H]3CC[C@@H](c4cnccn4)CC3)c2c1 [LFA1065, 7-morpholino-5-(4-pyrazin-2-ylcyclohexoxy)-1,6-naphthyridin-3-ol] | – |

| Compound | IC50 (DNA-PK; Table 1) | IC50 ([1]; Table 3) | further results |
| --- | --- | --- | --- |
| N-[5-[4-[(4,6-dimethylpyrimidin-2-yl)amino]cyclohexoxy]-7-morpholino-1,6-naphthyridin-3-yl]methanesulfonamide;2,2,2-trifluoroacetic acid [LFA1046] | – | 100 to 1000 nM | – |
